Test results as given in patent US6936585B2, “Corticotropin releasing factor 2 receptor agonists” (priority 2002, dated 2005).
Like-named read-outs stand apart in the source and are kept apart here. Ends that are not written are not given here. Peptide text beside a SMILES is read from it.

Legend:
CRF2R = target: T1, CRF2R (Homo sapiens, UniProt Q13324); experiment: CRF2R agonist activation (EC50 / Emax), called comparative CRF binding; assay type: cell-based; conditions: for Emax: read-out: CRF2R Emax
T1 sequence (Q13324 1-411): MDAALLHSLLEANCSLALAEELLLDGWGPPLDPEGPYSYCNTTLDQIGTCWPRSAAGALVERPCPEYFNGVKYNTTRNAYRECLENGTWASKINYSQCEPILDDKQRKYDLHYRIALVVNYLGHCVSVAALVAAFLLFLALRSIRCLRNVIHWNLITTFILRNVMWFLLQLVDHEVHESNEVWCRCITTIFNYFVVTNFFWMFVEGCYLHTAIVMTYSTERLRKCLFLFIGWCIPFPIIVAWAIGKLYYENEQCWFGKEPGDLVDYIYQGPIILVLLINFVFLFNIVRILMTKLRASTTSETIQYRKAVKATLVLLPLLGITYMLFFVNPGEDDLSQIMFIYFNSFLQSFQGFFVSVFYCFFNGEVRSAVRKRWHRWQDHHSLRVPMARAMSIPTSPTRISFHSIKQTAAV
Method in brief: (§1)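 Agonism at each human CRF receptor subtype is inferred from increased cAMP relative to vehicle, using cells expressing that subtype and either lysate cAMP measurement or a cAMP response element reporter.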

CRF1R = target: T2, CRF1R (Homo sapiens, UniProt P34998); experiment: CRF1R agonist activation (EC50 / Emax), called comparative CRF binding; assay type: cell-based; conditions: for Emax: read-out: CRF1R Emax
T2 sequence (P34998 24-415): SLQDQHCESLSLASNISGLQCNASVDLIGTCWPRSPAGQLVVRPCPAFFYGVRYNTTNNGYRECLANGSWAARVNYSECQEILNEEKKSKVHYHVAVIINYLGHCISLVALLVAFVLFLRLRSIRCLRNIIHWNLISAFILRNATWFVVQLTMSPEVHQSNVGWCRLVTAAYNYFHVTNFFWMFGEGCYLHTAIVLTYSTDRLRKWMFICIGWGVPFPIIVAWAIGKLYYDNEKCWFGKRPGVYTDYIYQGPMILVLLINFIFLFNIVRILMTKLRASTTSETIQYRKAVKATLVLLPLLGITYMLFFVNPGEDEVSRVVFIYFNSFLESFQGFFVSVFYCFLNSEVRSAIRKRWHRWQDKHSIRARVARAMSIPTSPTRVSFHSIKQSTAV
Method in brief: as §1

Row | Compound | Emax (CRF2R) | Emax (CRF1R) | EC50 (CRF2R) | EC50 (CRF1R) | EC50 (CRF1R; CRF1R EC50)
1 | CC[C@H](C)[C@H](N)C(=O)N[C@H](C(=O)N[C@@H](CC(C)C)C(=O)N[C@@H](CO)C(=O)N[C@@H](CC(C)C)C(=O)N[C@@H](CC(=O)O)C(=O)N[C@H](C(=O)N1CCC[C@H]1C(=O)N[C@H](C(=O)NCC(=O)N[C@@H](CC(C)C)C(=O)N[C@@H](CC(C)C)C(=O)N[C@@H](CCC(N)=O)C(=O)N[C@H](C(=O)N[C@@H](CC(C)C)C(=O)N[C@@H](CC(C)C)C(=O)N[C@@H](CCC(=O)O)C(=O)N[C@@H](CCC(N)=O)C(=O)N[C@@H](CCC(=O)O)C(=O)N[C@@H](CCCNC(=N)N)C(=O)N[C@@H](CCC(N)=O)C(=O)N[C@@H](CCC(=O)O)C(=O)N[C@@H](C)C(=O)N[C@@H](C)C(=O)N[C@@H](CCCNC(=N)N)C(=O)N[C@@H](CCC(=O)O)C(=O)N[C@@H](CCC(N)=O)C(=O)N[C@@H](C)C(=O)N[C@H](C(=O)N[C@H](C(=O)N[C@@H](CC(N)=O)C(=O)N[C@@H](C)C(=O)N[C@@H](CCCNC(=N)N)C(=O)N[C@H](C(=O)N[C@@H](CC(C)C)C(=O)N[C@@H](C)C(=O)N[C@@H](CCCNC(=N)N)C(=O)N[C@H](C(N)=O)C(C)C)[C@@H](C)CC)[C@@H](C)O)[C@@H](C)O)[C@@H](C)CC)[C@@H](C)CC)C(C)C)C(C)C [compound 118] (H-IVLSLDVPIGLLQILLEQERQEAAREQATTNARILARV-NH2; N-terminus assumed) | 100% | 5% | – | – | –
2 | SQEPPISLDLPTHLLREVLEMTKADQLAQQAHSNRKLLDIA-NH2 [compound 99] | 4.35% | 4.35% | – | – | –
3 | CC[C@H](C)[C@H](NC(=O)[C@H](CCCNC(=N)N)NC(=O)[C@H](C)NC(=O)[C@H](CC(N)=O)NC(=O)[C@H](CCC(N)=O)NC(=O)[C@H](CCC(=O)O)NC(=O)[C@H](C)NC(=O)[C@H](CCCNC(=N)N)NC(=O)[C@H](CCC(=O)O)NC(=O)[C@H](CCCNC(=N)N)NC(=O)[C@H](CCC(N)=O)NC(=O)[C@H](CO)NC(=O)[C@H](CCC(N)=O)NC(=O)[C@@H](NC(=O)[C@H](CCCCN)NC(=O)[C@H](CCC(=O)O)NC(=O)[C@H](CC(C)C)NC(=O)[C@H](CCC(=O)O)NC(=O)[C@H](CC(C)C)NC(=O)[C@H](CC(C)C)NC(=O)[C@@H](NC(=O)[C@H](CCCNC(=N)N)NC(=O)[C@H](CC(C)C)NC(=O)[C@H](CC(C)C)NC(=O)[C@H](Cc1ccccc1)NC(=O)[C@H](CC(C)C)NC(=O)[C@@H]1CCCN1C(=O)[C@@H](NC(=O)[C@H](CC(=O)O)NC(=O)[C@@H](NC(=O)[C@H](CO)NC(=O)[C@H](CC(C)C)NC(=O)[C@H](CO)NC(=O)[C@@H]1CCCN1C(=O)[C@H](CC(N)=O)NC(=O)[C@@H](N)CC(=O)O)[C@@H](C)CC)C(C)C)[C@@H](C)O)[C@@H](C)O)C(=O)N[C@@H](Cc1ccccc1)C(=O)N[C@@H](C)C(=O)N[C@@H](CCCNC(=N)N)C(=O)N[C@H](C(N)=O)C(C)C [compound 385] (H-DNPSLSIDVPLFLLRTLLELEKTQSQRERAEQNARIFARV-NH2; N-terminus assumed) | 100% | 46% | 10.3 nM | ≥ 1000 nM | –
4 | CC[C@H](C)[C@H](NC(=O)[C@H](CCC(N)=O)NC(=O)[C@H](C)NC(=O)[C@H](CC(N)=O)NC(=O)[C@H](CCC(N)=O)NC(=O)[C@H](CCC(=O)O)NC(=O)[C@H](C)NC(=O)[C@H](CCCNC(=N)N)NC(=O)[C@H](CCC(=O)O)NC(=O)[C@H](CCCNC(=N)N)NC(=O)[C@H](CCC(N)=O)NC(=O)[C@H](CO)NC(=O)[C@H](CCC(N)=O)NC(=O)[C@@H](NC(=O)[C@H](CCCCN)NC(=O)[C@H](CCC(=O)O)NC(=O)[C@H](CC(C)C)NC(=O)[C@H](CCC(=O)O)NC(=O)[C@H](CC(C)C)NC(=O)[C@H](CC(C)C)NC(=O)[C@@H](NC(=O)[C@H](CCCNC(=N)N)NC(=O)[C@H](CC(C)C)NC(=O)[C@H](CC(C)C)NC(=O)[C@H](CC(C)C)NC(=O)[C@H](CC(C)C)NC(=O)[C@@H]1CCCN1C(=O)[C@H](CC(C)C)NC(=O)[C@H](CC(=O)O)NC(=O)[C@@H](NC(=O)[C@H](CO)NC(=O)[C@H](CC(C)C)NC(=O)[C@H](CO)NC(=O)[C@@H]1CCCN1C(=O)[C@H](CC(N)=O)NC(=O)[C@@H](N)CC(=O)O)[C@@H](C)CC)[C@@H](C)O)[C@@H](C)O)C(=O)N[C@@H](Cc1ccccc1)C(=O)N[C@@H](C)C(=O)N[C@@H](CCC(N)=O)C(=O)N[C@H](C(N)=O)C(C)C [compound 327] (H-DNPSLSIDLPLLLLRTLLELEKTQSQRERAEQNAQIFAQV-NH2; N-terminus assumed) | 100% | 36.5% | – | – | –
5 | CC[C@H](C)[C@H](NC(=O)[C@H](CO)NC(=O)[C@H](CC(C)C)NC(=O)[C@H](CO)NC(=O)[C@@H]1CCCN1C(=O)[C@H](CC(N)=O)NC(=O)[C@@H](N)CC(=O)O)C(=O)N[C@@H](CC(=O)O)C(=O)N[C@@H](CC(C)C)C(=O)N[C@H](C(=O)N[C@@H](Cc1ccccc1)C(=O)N[C@@H](Cc1cnc[nH]1)C(=O)N[C@@H](CC(C)C)C(=O)N[C@@H](CC(C)C)C(=O)N[C@@H](CCCNC(=N)N)C(=O)N[C@H](C(=O)N[C@@H](CC(C)C)C(=O)N[C@@H](CC(C)C)C(=O)N[C@@H](CCC(=O)O)C(=O)N[C@@H](CC(C)C)C(=O)N[C@@H](C)C(=O)N[C@@H](CCCNC(=N)N)C(=O)N[C@H](C(=O)N[C@@H](CCC(N)=O)C(=O)N[C@@H](CO)C(=O)N[C@@H](CCC(N)=O)C(=O)N[C@@H](CCCNC(=N)N)C(=O)N[C@@H](CCC(=O)O)C(=O)N[C@@H](CCCNC(=N)N)C(=O)N[C@@H](C)C(=O)N[C@@H](CCC(=O)O)C(=O)N[C@@H](CCC(N)=O)C(=O)N[C@@H](CC(N)=O)C(=O)N[C@@H](CCCNC(=N)N)C(=O)N[C@H](C(=O)N[C@H](C(=O)N[C@@H](Cc1ccccc1)C(=O)N[C@@H](CC(=O)O)C(=O)N[C@@H](CO)C(=O)N[C@H](C(N)=O)C(C)C)[C@@H](C)CC)[C@@H](C)CC)[C@@H](C)O)[C@@H](C)O)[C@@H](C)O [hUcnI, human urocortin I, reference compound] (H-DNPSLSIDLTFHLLRTLLELARTQSQRERAEQNRIIFDSV-NH2) | – | – | 3.52 nM | – | 9 nM
6 | CC[C@H](C)[C@H](N)C(=O)N[C@H](C(=O)N[C@@H](CC(C)C)C(=O)N[C@@H](CO)C(=O)N[C@@H](CC(C)C)C(=O)N[C@@H](CC(=O)O)C(=O)N[C@H](C(=O)N1CCC[C@H]1C(=O)N[C@H](C(=O)NCC(=O)N[C@@H](CC(C)C)C(=O)N[C@@H](CC(C)C)C(=O)N[C@@H](CCC(N)=O)C(=O)N[C@H](C(=O)N[C@@H](CC(C)C)C(=O)N[C@@H](CC(C)C)C(=O)N[C@@H](CCC(=O)O)C(=O)N[C@@H](CCC(N)=O)C(=O)N[C@@H](C)C(=O)N[C@@H](CCCCN)C(=O)N[C@@H](C)C(=O)N[C@@H](CCCNC(=N)N)C(=O)N[C@@H](C)C(=O)N[C@@H](C)C(=O)N[C@@H](CCCNC(=N)N)C(=O)N[C@@H](CCC(=O)O)C(=O)N[C@@H](CCC(N)=O)C(=O)N[C@@H](C)C(=O)N[C@H](C(=O)N[C@H](C(=O)N[C@@H](CC(N)=O)C(=O)N[C@@H](C)C(=O)N[C@@H](CCCNC(=N)N)C(=O)N[C@H](C(=O)N[C@@H](CC(C)C)C(=O)N[C@@H](C)C(=O)N[C@@H](CCCNC(=N)N)C(=O)N[C@H](C(N)=O)C(C)C)[C@@H](C)CC)[C@@H](C)O)[C@@H](C)O)[C@@H](C)CC)[C@@H](C)CC)C(C)C)C(C)C [compound 109] (H-IVLSLDVPIGLLQILLEQAKARAAREQATTNARILARV-NH2; N-terminus assumed) | 91.7% | 6.7% | – | – | –
7 | CC[C@H](C)[C@H](NC(=O)[C@H](C)NC(=O)[C@H](CC(N)=O)NC(=O)[C@H](CCC(N)=O)NC(=O)[C@H](CCC(=O)O)NC(=O)[C@H](C)NC(=O)[C@H](CCCNC(=N)N)NC(=O)[C@H](CCC(=O)O)NC(=O)[C@H](CCCNC(=N)N)NC(=O)[C@H](CCC(N)=O)NC(=O)[C@H](CO)NC(=O)[C@H](CCC(N)=O)NC(=O)[C@@H](NC(=O)[C@H](CCCNC(=N)N)NC(=O)[C@H](C)NC(=O)[C@H](CC(C)C)NC(=O)[C@H](CCC(=O)O)NC(=O)[C@H](CC(C)C)NC(=O)[C@H](CC(C)C)NC(=O)[C@@H](NC(=O)[C@H](CCCNC(=N)N)NC(=O)[C@H](CC(C)C)NC(=O)[C@H](CC(C)C)NC(=O)[C@H](Cc1ccc(O)cc1)NC(=O)[C@H](Cc1ccc(O)cc1)NC(=O)[C@@H]1CCCN1C(=O)[C@H](CC(C)C)NC(=O)[C@H](CC(=O)O)NC(=O)[C@@H](NC(=O)[C@H](CO)NC(=O)[C@H](CC(C)C)NC(=O)[C@H](CO)NC(=O)[C@@H]1CCCN1C(=O)[C@H](CC(N)=O)NC(=O)[C@@H](N)CC(=O)O)[C@@H](C)CC)[C@@H](C)O)[C@@H](C)O)C(=O)N[C@H](C(=O)N[C@@H](Cc1ccccc1)C(=O)N[C@@H](C)C(=O)N[C@@H](CO)C(=O)N[C@H](C(N)=O)C(C)C)[C@@H](C)CC [compound 263] (H-DNPSLSIDLPYYLLRTLLELARTQSQRERAEQNAIIFASV-NH2; N-terminus assumed) | 93% | 72% | – | – | –
